The subject of the assay is live parasites, most commonly a louse. In words: Petri dish screening: drops of test formulation on live parasites. The assay is classed as in vivo. Particulars: evaluation of solvents, method of Example 1. The source says:
In one procedure that provides an evaluative method for determining effectiveness of commercial products, live parasites were removed from subjects' hair and placed into a Petri dish. One to two drops of test formulation were placed upon the test insect, most commonly a louse. The specimen was observed under magnification for initial movement, and was kept under observation for up to fifteen additional minutes. […] The effectiveness of the treatment was then rated on a 0-4 scale, with a score of 0 denoting total ineffectiveness and a score of 4 denoting total kill.

SMILES strings stand for the structures.

With `CCCCOC(=O)CC(C)O` (stereo not shown) [Example B1, Butyl 3-hydroxybutyrate], the “Efficacy Score” value is on record as 0 (No elimination of live lice after 5 minutes (100% live lice remain)).

The values are drawn from patent US10334853B2, “Compositions and methods for treating ectoparasite infestation” (Larada Sciences, Inc., priority 2016, dated 2019).
